“And” between values parts separate entries of the source, which are not always exact repeats. Equal values may be shown once.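 Growth conditions: 96-well plates. Treatment: test compound, 48 hours, 5 concentrations. Analysis: linear interpolation between bracketing concentrations; unreached endpoints set to highest concentration. GI50 = concentration required for 50% inhibition of growth. TGI: total growth inhibition.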
Tests used:
Assay in all cases: inhibition of tumour cell growth, NCI panel, 48 h
TK-10 renal = tested on: TK-10 renal
SN12C renal = tested on: SN12C renal
HCT-116 colon = tested on: HCT-116 colon
MOLT-4 leukemia = tested on: MOLT-4 leukemia
OVCAR-8 ovarian = tested on: OVCAR-8 ovarian
SK-MEL-2 melanoma = tested on: SK-MEL-2 melanoma
PC-3 prostate = tested on: PC-3 prostate
OVCAR-3 ovarian = tested on: OVCAR-3 ovarian
SF-539 CNS = tested on: SF-539 CNS
K-562 leukemia = tested on: K-562 leukemia

SMILES	GI50 (TK-10 renal)	TGI (TK-10 renal)	GI50 (SN12C renal)	TGI (SN12C renal)	GI50 (HCT-116 colon)	TGI (HCT-116 colon)	GI50 (MOLT-4 leukemia)	TGI (MOLT-4 leukemia)	GI50 (OVCAR-8 ovarian)	TGI (OVCAR-8 ovarian)	GI50 (SK-MEL-2 melanoma)	TGI (SK-MEL-2 melanoma)	GI50 (PC-3 prostate)	TGI (PC-3 prostate)	GI50 (OVCAR-3 ovarian)	TGI (OVCAR-3 ovarian)	GI50 (SF-539 CNS)	TGI (SF-539 CNS)	GI50 (K-562 leukemia)	TGI (K-562 leukemia) [µM]
CCC[CH2][Sn]([CH2]CCC)([O]C(=O)c1ccc(OC)c(OC)c1OC)[O][Sn]([CH2]CCC)([CH2]CCC)[O]C(=O)c1ccc(OC)c(OC)c1OC	0.306 µM	0.716 µM	0.443 µM	1.58 µM	0.276 µM	0.833 µM	0.0804 µM	2.34 µM	0.299 µM	0.979 µM	0.16 µM	0.48 µM	1.2 µM	2.46 µM	0.406 µM	1.18 µM	0.36 µM	0.94 µM	0.0416 µM	1.86
COc1cc(N=Nc2ccc(O)c3ncccc23)c2ncccc2c1	9.81 µM	> 100 µM	4.45 µM	> 100 µM	2.56 µM	> 100 µM	3.5 µM	> 100 µM	3.73 µM	> 100 µM	8.4 µM	> 100 µM	2.84 µM	> 100 µM	4.58 µM	> 100 µM	2.95 µM	14 µM	3.44 µM	> 100
O=C(Nc1ccc(Br)cc1F)c1cc(Cl)ccc1O	3.5 µM	10.2 µM	0.491 µM	5.68 µM	0.522 µM	2.45 µM	1.76 µM	5.11 µM	1.06 µM	12.8 µM	0.372 µM	2 µM	1.87 µM	6.68 µM	0.476 µM	> 26.6 µM	0.594 µM	5.85 µM	0.489 µM	> 50.7
C[C@@H]1C[C@@H]([C@@H](CC2CC(=O)NC(=O)C2)OC(=O)CC(=O)c2ccccc2)C(=O)[C@@H](C)C1	0.306 µM	> 24.3 µM	0.15 µM	> 39.3 µM	0.489 µM	> 45.2 µM	0.494 µM	> 100 µM	0.405 µM	> 68.8 µM	0.88 µM	22.8 µM	0.444 µM	> 100 µM	1.74 µM	> 32.7 µM	0.521 µM	16.6 µM	0.682 µM	> 100
COc1ccc2nc3ccccc3c(NCc3ccc(F)cc3)c2c1	2.89 µM	10.3 µM	1.83 µM	7.32 µM	1.75 µM	6.5 µM	1.66 µM	10.4 µM	2 µM	13.6 µM	3.19 µM	10.4 µM	1.96 µM	8.01 µM	2.25 µM	7.81 µM	1.76 µM	6.54 µM	1.52 µM	6.94
Cc1cc(N[C@@H]2CCC[C@H](Nc3ccnc4cc(Cl)ccc34)C2)nc(N2CCCCCC2)n1	1.73 µM	3.52 µM	1.55 µM	3.11 µM	1.05 µM	2.36 µM	1.6 µM	5.73 µM	2.51 µM	6.1 µM	2.07 µM	4.52 µM	1.81 µM	4.05 µM	1.91 µM	4.06 µM	1.59 µM	3.03 µM	0.359 µM	1.69
CC(=O)Nc1ccc(-c2csc(Nc3cccc(-c4csc(C)n4)c3)n2)cc1	6.03 µM	> 50 µM	1.36 µM	6.78 µM	0.697 µM	> 26.7 µM		> 50 µM	2.44 µM	20.8 µM	8.03 µM	> 27.3 µM	1.67 µM	> 19.9 µM	0.238 µM		1.1 µM	6.83 µM	0.385 µM	9.55
O=C(Cc1ccc(F)c(Cl)c1)Nc1cc(C2(C(F)(F)F)CC2)nn1CC1CCCCC1	4.78 µM	> 15 µM	4.46 µM	> 15 µM	3.88 µM	> 15 µM	3.37 µM	9.57 µM	4.96 µM	> 15 µM	3.99 µM	13.3 µM	4.68 µM	> 15 µM	3.81 µM	> 15 µM	4.86 µM	> 15 µM	4.28 µM	> 15
COc1ccc(-c2ccc(=O)oc2C#Cc2cc(OC)c(OC)c(OC)c2)cc1O	6.88 µM	> 100 µM	0.665 µM	> 100 µM	0.249 µM	> 91.9 µM	0.952 µM	> 100 µM	0.775 µM	> 100 µM	1.31 µM	> 22.1 µM	0.621 µM	> 100 µM	0.113 µM	0.612 µM	0.254 µM	1.16 µM	0.129 µM	> 100
CC(NCCC(c1ccccc1)c1ccccc1)c1ccccc1 (stereo not drawn)	1.93 µM	4 µM	2.42 µM	9.13 µM	1.66 µM	3.08 µM	2.59 µM	7.15 µM	1.7 µM	3.37 µM	1.9 µM	3.77 µM	2.1 µM	6.96 µM	3.21 µM	10.7 µM	2.92 µM	9.01 µM	2.42 µM	5.23
Cc1c(N(C)C)ccc2c(=O)c3cccc(CC(=O)O)c3oc12		> 100 µM		> 100 µM		> 100 µM		> 100 µM		> 100 µM		> 100 µM		> 100 µM		> 100 µM		> 100 µM		> 100
O=C(Nc1cccc(C(F)(F)F)c1)c1ccc(NC2=C(Cl)C(=O)N(Cc3ccc(Cl)cc3Cl)C2=O)cc1	15.6 µM	35.7 µM	17.4 µM	32.8 µM	5.99 µM	18.6 µM	1.31 µM	6.8 µM	3.42 µM	19.7 µM	10.9 µM	25.6 µM	4.64 µM	15.2 µM	15.3 µM	30.9 µM	8.06 µM	21.5 µM	1.83 µM	4.49
O=C(c1ccco1)c1c(C(F)(F)F)nc2ccc(Cl)cc2[n+]1[O-]	> 100 µM	> 100 µM	> 100 µM	> 100 µM	> 100 µM	> 100 µM	> 100 µM	> 100 µM	> 100 µM	> 100 µM	> 100 µM	> 100 µM	> 100 µM	> 100 µM	> 100 µM	> 100 µM	> 100 µM	> 100 µM	33.2 µM	> 100
CCOC(=O)Nc1cc2c(c(N)n1)N=C(c1ccccc1)CO2	0.704 µM	19.3 µM	0.84 µM	31.1 µM	0.084 µM	13.9 µM	0.105 µM	> 40.7 µM	0.418 µM	> 32.9 µM	41.7 µM	> 100 µM	0.182 µM	6.44 µM	0.0345 µM	0.109 µM	0.195 µM	0.789 µM	0.0336 µM	34
Cc1nc(N)sc1N=Nc1ccccc1Br		70.4 µM		57.5 µM		55.1 µM		> 100 µM		> 84.8 µM		55.2 µM		63 µM		> 79.9 µM		> 59.5 µM		> 100
O=C(NC[C@H](O)CN1CCc2ccccc2C1)c1cc(NC2COC2)ncn1	22 µM	88.9 µM	18.5 µM	> 100 µM	22.7 µM	> 100 µM	15.1 µM	49.3 µM	20.8 µM	> 100 µM	15.9 µM	51.7 µM	5.92 µM	96.3 µM	10.8 µM	49.1 µM	5.09 µM	45.6 µM	20.3 µM	> 100
NC(N)=N/N=C/c1c(Cl)cccc1Cl	21.9 µM	66.3 µM	36.6 µM	> 100 µM	17.2 µM	36.1 µM	28.2 µM	74.5 µM	30 µM	> 100 µM	18.5 µM	36.1 µM	31 µM	> 100 µM	28.1 µM	> 100 µM	23.7 µM	> 100 µM	24.1 µM	63.1
COc1cc(C(=O)N2CCN(C(=O)c3cc(OC)c(OC)c(OC)c3)C2=S)cc(OC)c1OC	17 µM	37.3 µM	17.1 µM	35.7 µM	18.2 µM	33.1 µM	23.5 µM	58.4 µM	21.9 µM	45.9 µM	16.3 µM	34.6 µM	15 µM	32.2 µM	15.2 µM	29.6 µM	14.5 µM	30.2 µM	24.9 µM	> 100
O=C(Nc1cc(C(F)(F)F)cc(C(F)(F)F)c1)c1cc(Cl)ccc1O	0.442 µM and 0.387 µM	> 10 µM and 11.1 µM	0.224 µM and 0.202 µM	> 2.73 µM and 1.54 µM	0.213 µM and 0.238 µM	0.999 µM and 1.16 µM	0.269 µM and 0.332 µM	0.845 µM and 2.69 µM	0.278 µM and 0.285 µM	3.85 µM and 6.08 µM	0.209 µM and 0.206 µM	0.589 µM and 0.981 µM	0.257 µM and 0.266 µM	> 3.02 µM and 3.78 µM	0.239 µM and 0.23 µM	> 3.54 µM and 9.93 µM	0.3 µM and 0.264 µM	1.88 µM and 1.59 µM	0.189 µM and 0.161 µM	> 61.3
NC(N)=NCCCC(=O)O		> 100 µM		> 100 µM		> 100 µM		> 100 µM		> 100 µM		> 100 µM		> 100 µM		> 100 µM		> 100 µM		> 100
CN(C)C1CCN(C(=O)c2ccc(NC(=O)Nc3ccc(-c4nc(N5CCOCC5)c5cccn5n4)cc3)cc2)CC1	0.393 µM	3.84 µM	0.0365 µM	14.7 µM	0.0705 µM	20 µM	0.0457 µM	2.52 µM	0.116 µM	15.5 µM	0.0833 µM	1.43 µM	0.0397 µM	2.1 µM	0.0412 µM	1.12 µM	0.0453 µM	0.406 µM	0.224 µM	9.66
CC1(C)OC2C(CO[Si](C)(C)C(C)(C)C)OC(n3c(I)c(C#C[Si](C)(C)C)c(=O)[nH]c3=O)C2O1 (stereo not drawn)	6.44 µM	20 µM	15.1 µM	37.5 µM	1.66 µM	3.37 µM	1.47 µM	3.54 µM	12.5 µM	45.8 µM	3.78 µM	16.7 µM	2.04 µM	4.13 µM	1.81 µM	3.54 µM	15.4 µM	28.9 µM	1.61 µM	3.89
CCOc1ccc(/C=C2\N=C(c3ccc([N+](=O)[O-])cc3)OC2=O)cc1		> 100 µM		> 100 µM		> 100 µM		> 100 µM		> 100 µM		> 100 µM		> 100 µM		> 100 µM		> 100 µM		> 100
CC(C)(/C=C(\C#N)C(=O)N1CCC[C@@H](n2nc(-c3ccc(Oc4ccccc4)cc3F)c3c(N)ncnc32)C1)N1CCN(C2COC2)CC1	4.12 µM	15.9 µM	4.3 µM	16.2 µM	6.31 µM	20.1 µM	2.94 µM	13.7 µM	10.8 µM	34.3 µM	10.1 µM	26.2 µM	10.6 µM	27.6 µM	10.5 µM	23.2 µM	5.95 µM	19 µM	7.49 µM	> 100
N=c1c2c(-c3ccccc3)c(-c3ccccc3)n(Cc3ccccc3)c2ncn1C1CCC(O)CC1 (stereo not drawn)	0.814 µM	8.96 µM	0.389 µM	16.4 µM	0.0446 µM	1.75 µM	0.075 µM	4.83 µM	0.072 µM	19 µM	1.08 µM	4.38 µM	0.466 µM	5.08 µM	0.488 µM	5.63 µM	0.639 µM	2.24 µM	0.0976 µM	2.64

From PubChem BioAssay (NCI)
